A short description of one data set: Solubility. The format is physicochemical. The note with it: as previously described (refs 27, 31, 36). As for the experimental part:
(§1) Determination of the chemical and photophysical properties (LogP, solubility, serum binding, net charge, and brightness) was performed as previously described.

A further data set is described as follows: Serum binding. As to conditions: as previously described (refs 27, 31, 36). It counts as in vitro ADME. As to the method: as §1
A short description of another data set: LogP. As to conditions: as previously described (refs 27, 31, 36). It counts as physicochemical. As for the experimental part: as §1
Another data set addresses T1, P0 (Rattus norvegicus, UniProt P06907).
T1 construct: performed using P0-expressing RT4 D6P2T cells; host or cells: RT4 D6P2T myelinating Schwannoma cells
T1 sequence (P06907 30-248): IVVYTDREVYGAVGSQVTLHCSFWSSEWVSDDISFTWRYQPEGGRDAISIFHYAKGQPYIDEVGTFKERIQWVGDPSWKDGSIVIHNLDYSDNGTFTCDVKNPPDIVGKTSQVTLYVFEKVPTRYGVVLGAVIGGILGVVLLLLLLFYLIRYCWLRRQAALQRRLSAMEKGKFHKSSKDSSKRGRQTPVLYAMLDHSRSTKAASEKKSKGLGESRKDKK
Put plainly: P0 affinity (KD) via flow cytometry saturation binding. The note with it: saturation binding on P0-expressing RT4 D6P2T Schwannoma cells, flow cytometry (APC-A), 0–2000 nM, triplicate, repeated at least two times per tracer.

Converted amounts (≈) assume the structure as drawn. Read-outs that look alike come from different tables or passages of the source. Where a SMILES comes first, the peptide text is derived from it. The star is where a group is joined. X1 = CC1(C)C(/C=C/C=C/C=C2/N(CCCCS(=O)(=O)O)c3ccc(S(=O)(=O)O)cc3C2(C)C)=[N+](CCCCCC(=O)NCCN2C(=O)CC(*)C2=O)c2ccc(S(=O)(=O)[O-])cc21

Protocol for P0: The mean fluorescence intensity values per sample were measured using an LSRII flow cytometer (BD Biosciences, Franklin Lakes, NJ, USA) with APC-A settings (635 nm laser and 750 nm long-pass filter) for a Cy5 dye. […] For the affinity assessment, fluorescence was measured using a FACSCanto II flow cytometry device (BD Biosciences, Franklin Lakes, NJ, USA) in the APC-A channel, and the accompanying FlowJo^TM v5 software (BD Biosciences, Franklin Lakes, NJ, USA) was used for further analysis.
Saturation binding experiments were performed for each of the fluorescent peptides in a concentration range of 0–2000 nM. All measurements were performed in triplicate, and experiments were repeated at least two times per tracer. The fluorescence was measured using a FACSCanto II flow cytometry device (BD Biosciences) in the APC-A channel, and the accompanying FlowJo software was used for further analysis. KD assessment was performed using the normalized geometric means, which were fitted with equations in GraphPad Prism 5 software.
A statistical evaluation to compare the affinity (KD) was performed using unpaired Student’s t-test. Values of p < 0.05 were considered significant.

On to `CC[C@H](C)[C@H](NC(=O)[C@H](CC(=O)O)NC(=O)[C@@H]1CCCN1C(=O)[C@@H]1CCCN1C(=O)[C@H](CC(N)=O)NC(=O)[C@H](CCCCN)NC(C)=O)C(=O)N[C@@H](CSC1CC(=O)N(CCNC(=O)CCCCC[N+]2=C(/C=C/C=C/C=C3/N(CCCCS(=O)(=O)O)c4ccc(S(=O)(=O)O)cc4C3(C)C)C(C)(C)c3cc(S(=O)(=O)[O-])ccc32)C1=O)C(N)=O` (stereo partly shown) [Cy5-P0_101–106] (Ac-KNPPDIC(X1)-NH2), for which the Solubility in “Solubility” is given as greater than 400 µM. This compound showed a fraction unbound in the data set “Serum binding” of 0.53. The LogP in the data set “LogP” (read-out: LogP) is -0.95 ± 0.05.
Compound `CC(=O)NCC(=O)N[C@@H](CCCCN)C(=O)N[C@H](C(=O)N[C@@H](CO)C(=O)N[C@@H](CCC(N)=O)C(=O)N[C@H](C(=O)N[C@H](C(=O)N[C@@H](CC(C)C)C(=O)N[C@@H](Cc1ccc(O)cc1)C(=O)N[C@H](C(=O)N[C@@H](Cc1ccccc1)C(=O)N[C@@H](CCC(=O)O)C(=O)N[C@@H](CCCCN)C(=O)N[C@H](C(=O)N1CCC[C@H]1C(=O)N[C@H](C(=O)N[C@@H](CCCNC(=N)N)C(=O)N[C@@H](Cc1ccc(O)cc1)C(=O)N[C@@H](CSC1CC(=O)N(CCNC(=O)CCCCC[N+]2=C(/C=C/C=C/C=C3/N(CCCCS(=O)(=O)O)c4ccc(S(=O)(=O)O)cc4C3(C)C)C(C)(C)c3cc(S(=O)(=O)[O-])ccc32)C1=O)C(N)=O)[C@@H](C)O)C(C)C)C(C)C)[C@@H](C)O)C(C)C)[C@@H](C)O` (stereo partly shown) [Cy5-P0_108–125] (Ac-GKTSQVTLYVFEKVPTRYC(X1)-NH2) had a fraction unbound in the data set “Serum binding” of 0.31. In addition, the LogP in “LogP” is reported as −1.34 + 0.03. At P0, the Kd stood at 83 nM.
Consider `CC(=O)N[C@@H](CCC(N)=O)C(=O)N[C@H](C(=O)N[C@H](C(=O)N[C@@H](CC(C)C)C(=O)N[C@@H](Cc1ccc(O)cc1)C(=O)N[C@H](C(=O)N[C@@H](Cc1ccccc1)C(=O)N[C@@H](CCC(=O)O)C(=O)N[C@@H](CCCCN)C(=O)N[C@H](C(=O)N1CCC[C@H]1C(=O)N[C@H](C(=O)N[C@@H](CCCNC(=N)N)C(=O)N[C@@H](Cc1ccc(O)cc1)C(=O)N[C@@H](CSC1CC(=O)N(CCNC(=O)CCCCC[N+]2=C(/C=C/C=C/C=C3/N(CCCCS(=O)(=O)O)c4ccc(S(=O)(=O)O)cc4C3(C)C)C(C)(C)c3cc(S(=O)(=O)[O-])ccc32)C1=O)C(N)=O)[C@@H](C)O)C(C)C)C(C)C)[C@@H](C)O)C(C)C` (stereo partly shown) [Cy5-P0_112–125] (Ac-QVTLYVFEKVPTRYC(X1)-NH2), for which the Solubility in “Solubility” is given as 71 µM (≈ 197 µg/mL); in “Solubility” (listed as Cy5P0_112–125), “relatively low solubility”. Besides, in the data set “LogP”, the LogP was −1.08 + 0.03. This compound also showed a Kd at P0 of 69 nM.
`CC(=O)N[C@@H](Cc1ccc(O)cc1)C(=O)N[C@H](C(=O)N[C@@H](Cc1ccccc1)C(=O)N[C@@H](CCC(=O)O)C(=O)N[C@@H](CCCCN)C(=O)N[C@H](C(=O)N1CCC[C@H]1C(=O)N[C@H](C(=O)N[C@@H](CCCNC(=N)N)C(=O)N[C@@H](Cc1ccc(O)cc1)C(=O)N[C@@H](CSC1CC(=O)N(CCNC(=O)CCCCC[N+]2=C(/C=C/C=C/C=C3/N(CCCCS(=O)(=O)O)c4ccc(S(=O)(=O)O)cc4C3(C)C)C(C)(C)c3cc(S(=O)(=O)[O-])ccc32)C1=O)C(N)=O)[C@@H](C)O)C(C)C)C(C)C` (stereo partly shown) [Cy5-P0_116–125] (Ac-YVFEKVPTRYC(X1)-NH2) displayed a Solubility in the data set “Solubility” of 150 µM (≈ 350 µg/mL). Also, the LogP in “LogP” was −1.58 + 0.03. This compound displayed a Kd on P0 of 147 ± 80 nM.
Regarding `CC(=O)N[C@@H](CCCCN)C(=O)N[C@H](C(=O)N1CCC[C@H]1C(=O)N[C@H](C(=O)N[C@@H](CCCNC(=N)N)C(=O)N[C@@H](Cc1ccc(O)cc1)C(=O)N[C@@H](CSC1CC(=O)N(CCNC(=O)CCCCC[N+]2=C(/C=C/C=C/C=C3/N(CCCCS(=O)(=O)O)c4ccc(S(=O)(=O)O)cc4C3(C)C)C(C)(C)c3cc(S(=O)(=O)[O-])ccc32)C1=O)C(N)=O)[C@@H](C)O)C(C)C` (stereo partly shown) [Cy5-P0_120–125] (Ac-KVPTRYC(X1)-NH2), the Solubility in the data set “Solubility” was 150 µM (≈ 269 µg/mL). Moreover, the fraction unbound in the data set “Serum binding” was 0.29. Besides, the LogP in the data set “LogP” is on record as −1.59 + 0.01.

The record behind these values is article PMC10296720, “A Truncated 14-Amino-Acid Myelin Protein-Zero-Targeting Peptide for Fluorescence-Guided Nerve-Preserving Surgery” (Biomolecules, 2023).
